Source: PMC7277860, “Viridistratins A−C, Antimicrobial and Cytotoxic Benzo[j]fluoranthenes from Stromata of Annulohypoxylon viridistratum (Hypoxylaceae, Ascomycota)” (Biomolecules, 2020)
Like-named read-outs stand apart in the source and are kept apart here.

What was measured:
Cytotoxicity assay (MTT) = type: cell-based; conditions: for IC50: 5 days
Procedure: (§1) Compounds 1−5 were dissolved as described in the previous section. The cytotoxicity assay was initially performed against the cell lines L929 (mouse fibroblasts), as well as KB 3.1 (human papillomavirus-related endocervical adenocarcinoma), as described previously. A detailed protocol, as well as sources of the cell lines, is given in the Supporting Information.
(§2) After incubating the cell lines with a serial dilution of the test compounds (final range: 37 to 0.6 × 10^−3 µg/mL) for five days, the cells were dyed using 3-(4,5-dimethyl-2-thiazolyl)-2,5-diphenyl-2H-tetrazolium bromide (MTT), which is only converted to its purple formazan derivative by living cells. Then, the intensity of the purple derivative in relation to cells without additive (set to 100% viability) for each concentration of a test compound was quantified. For this, the absorption at 595 nm was measured using a microplate reader to calculate the percentage of cell viability. From this, the half-maximum inhibitory concentration (IC50, in µM) was calculated.
(§3) Protocol: Cytotoxicity Assay
(§4) The ass ay w as co nducted i n 9 6-well flat-bottom mi crotiter plates using the parameters summarised i n Tabl e S 2 and as described in [S2].
(§5) Cell lines L929 and KB 3.1 were incubated at 37 °C under 10 % CO2 in Gibco™ DMEM medium (Thermo Fisher Scientific, Waltham, MA, USA) supplemented with 10 % FBS. A microtiter plate was filled with 120 µL of this suspension (50,000/mL) in each well.
(§6) Seperately, another microtiter plate was filled with 100 µL of growth medium in each well. Then, 50 µL of the test compound sol utions (1 mg/mL) were given to wells of the first column in two replicates (one compound per row). C ell s wi thout addi ti ves, Me O H, and MeOH: DMSO 9+1 were used as negative controls. Starting from the first column, 50 µL of the solutions were gradually transferred to the ne xt col umn, the conte nts thoroughl y mi xed, and 50 µ L transferred to the following column. This created a serial dilution of the test compounds r anging from 333 µg/mL to 1.9 ×10−3 µg/mL. The remai ni ng 50 µL after column twelve were discarded. From this microtiter plate, 60 µL of the sol utions from 111 µg/ mL to 1.9×10−3 µg/mL were given to the first plate containing 120 µL of the cel l suspens i ons (i.e. the hi ghest concentrati on 333 µg/mL was not used). T his resulted i n fi nal compound concent rati ons rangi ng from […]
(§7) After 5 days of incubation under the aforeme ntioned i ncubati on condi ti ons, the half maximum inhibitory concentrati ons (IC 50) were determined using a colorimetric tetrazolium dye MTT assay [S3].
(§8) For this, 20 µL of a 5 mg/mL solution of 3-( 4 ,5 -dimethyl-2-thi azo l yl)-2 ,5 -di phenyl -2H-tetrazolium bromide (MTT) w ere added to each well and incubated for two hours at 37 °C. Then, the microtiter plate was centrifuged (3,000 r p m, 5 mi n) and the supernat ant remo ved by ho l di ng the pl ate upsi de-do wn and gentle shaking. Afterwards, the wells were washed using 100 µL of phosph ate buffered saline (PBS).
(§9) The plate was again centrifuged and the supernatant removed as described before. Then, 100 µL of an isopropanol:HCl solution (1L i sopropanol+4 mL HCl 37 % w/v) were added to the wells. After i ncubati ng fo r 10 mi n at ambi ent te mperature, the a bso r pti o n of the well s at 595 nm was measured wi th an I nfi ni te ® 200 Pro microplate reader (TECAN, Männedorf, Schweiz).
(§10) The absorption values of the cells without additives were averaged and set to 100 % cell viability.
(§11) Then, t he me ans of absorption of the two compound replicates were set in relation to the blank media.
(§12) These percentage values were plotted a gainst the concentration range (37 µg/mL to 0.6×10 −3 µg/mL).
(§13) The IC50 val ue w as read from the plot ( i n µg/mL) and the uni ts conversed to µM.
(§14) If effects were observed wi th cell lines L929 and KB 3.1 (IC50 < 50 µM), the other cell lines were tested using the same protocol.
(§15) Table S2: Cytotoxicity assay experiment parameters cell line type No. growth medium […]

L929 (mouse fibroblasts) = assay: Cytotoxicity assay (MTT); type: cell-based; conditions: 5 days
Procedure: as §1, §2, §3, §4, §5, §6, §7, §8, §9, §10, §11, §12, §13, §14, §15

[1] = human, KB 3.1 human endocervical adenocarcinoma cells
[2] = mouse, L929 mouse fibroblast cells, L929 mouse fibroblasts

SMILES | IC50 at 5 days (Cytotoxicity assay (MTT); [1]) | IC50 at 5 days (Cytotoxicity assay (MTT); [2]) | IC50 (Cytotoxicity assay (MTT); KB 3.1 human endocervical adenocarcinoma) | IC50 (Cytotoxicity assay (MTT); L929 mouse fibroblasts) | IC50 (L929 (mouse fibroblasts); 120 h, value in µg/mL, read-out: half-maximum inhibitory concentration (IC50)) | IC50 (L929 (mouse fibroblasts); Mus musculus, L929, 120 h, value in µg/mL, read-out: half-maximum inhibitory concentration (IC50)) | IC50 (L929 (mouse fibroblasts); read-out: Cytotoxicity (IC50))
O=C1CCC(=O)c2c1c(O)cc1c2-c2ccc(O)c3c(O)ccc-1c23 [Compound 5, truncatone C] | 30.1 µM | 16.3 µM | – | – | – | – | –
COc1cccc2c3c(ccc12)-c1ccc(O)c2c(O)ccc-3c12 [Compound 2, viridistratin B] | 17.2 µM | 17.2 µM | – | – | – | – | –
O=C1C[C@H]2C(=C3CCC(=O)c4c(O)ccc2c43)c2cccc(O)c21 [Compound 4, truncatone A] | – | – | 44 µM | 10.4 µM | 3.3 µg/mL | – | –
Oc1cccc2c3c(ccc12)-c1ccc(O)c2c(O)ccc-3c12 [Compound 1, viridistratin A] | 28.3 µM | 12.7 µM | – | – | – | 8.5 µg/mL | –
COc1cccc2c3c(ccc12)-c1ccc(O)c2c(OC)ccc-3c12 [Compound 3, viridistratin C] | > 50 µM | > 50 µM | – | – | – | – | 61 µM
